Test results: ChEMBL document CHEMBL3351578, “Discovery and pharmacological profile of new hydrophilic 5-HT(4) receptor antagonists” (Bioorg Med Chem Lett, 2014)

Molecular target: T1, 5-hydroxytryptamine receptor 4 (Homo sapiens, UniProt Q13639)
Experiment: Displacement of [3H]GR113808 from human 5HT4b receptor expressed in HEK293 cell membranes
Conditions: not given

T1 sequence (Q13639 whole entry): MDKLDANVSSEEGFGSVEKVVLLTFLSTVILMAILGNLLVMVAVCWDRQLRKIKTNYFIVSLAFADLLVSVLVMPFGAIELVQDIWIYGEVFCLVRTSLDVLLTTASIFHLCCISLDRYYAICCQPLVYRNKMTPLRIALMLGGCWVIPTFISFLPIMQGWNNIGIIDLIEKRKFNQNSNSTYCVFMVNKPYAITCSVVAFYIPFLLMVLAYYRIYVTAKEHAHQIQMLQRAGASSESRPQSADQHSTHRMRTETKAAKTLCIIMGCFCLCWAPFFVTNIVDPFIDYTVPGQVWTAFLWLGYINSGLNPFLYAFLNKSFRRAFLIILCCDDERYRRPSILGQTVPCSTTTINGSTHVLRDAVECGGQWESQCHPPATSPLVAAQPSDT

SMILES | Ki [nM]
O=C(OCC1CCN(CC2C3CC4C2C4C3C(=O)O)CC1)c1c2n(c3ccccc13)CCCO2 (stereo not given) | 1.58
CS(=O)(=O)Nc1ccc(CN2CCC(CNC(=O)c3cccc4c3OCCO4)CC2)cc1 | 0.2
O=C(OCC1CCN(CC(O)CO)CC1)c1c2n(c3ccccc13)CCCO2 (stereo not given) | 0.0794
CCCCN1CCC(CNC(=O)c2c3n(c4ccccc24)CCCO3)CC1 [PIBOSEROD] | 0.398
CCCCS(=O)(=O)Nc1ccc(CN2CCC(CNC(=O)c3c4n(c5ccccc35)CCCO4)CC2)cc1 | 1
CCCCS(=O)(=O)Nc1ccc(CN2CCC(CNC(=O)c3cccc4c3OCCO4)CC2)cc1 | 0.251
O=C(NCC1CCN(Cc2ccc(NS(=O)(=O)C3CCCCC3)cc2)CC1)c1c[nH]c2ccccc12 | 501
CS(=O)(=O)Nc1ccc(CN2CCC(CNC(=O)c3c4n(c5ccccc35)CCCO4)CC2)cc1 | 0.2
CC(C(=O)O)c1ccc(CN2CCC(COC(=O)c3c4n(c5ccccc35)CCCO4)CC2)cc1 (stereo not given) | 0.316
O=C(NCC1CCN(Cc2ccc(NS(=O)(=O)C3CCCCC3)cc2)CC1)c1c2n(c3ccccc13)CCCO2 | 0.2
O=C(NCC1CCN(Cc2ccc(NS(=O)(=O)C3CCCCC3)cc2)CC1)c1cccc2c1OCCO2 | 1.26
CC(C)CS(=O)(=O)Nc1ccc(CN2CCC(CNC(=O)c3cccc4c3OCCO4)CC2)cc1 | 0.2
O=C(NCC1CCN(Cc2ccc(NS(=O)(=O)Cc3ccccc3)cc2)CC1)c1c[nH]c2ccccc12 | 1000
CC(C)CS(=O)(=O)Nc1ccc(CN2CCC(CNC(=O)c3c4n(c5ccccc35)CCCO4)CC2)cc1 | 0.0501

System: not listed separately
Experiment: Lipophilicity, log D of the compound at pH 7.4
Assay type: physicochemical
Conditions: buffer

SMILES | logD
O=C(OCC1CCN(CC2C3CC4C2C4C3C(=O)O)CC1)c1c2n(c3ccccc13)CCCO2 (stereo not given) | 0.7
CS(=O)(=O)Nc1ccc(CN2CCC(CNC(=O)c3cccc4c3OCCO4)CC2)cc1 | 0.5
O=C(OCC1CCN(CC(O)CO)CC1)c1c2n(c3ccccc13)CCCO2 (stereo not given) | 0.2
CCCCS(=O)(=O)Nc1ccc(CN2CCC(CNC(=O)c3c4n(c5ccccc35)CCCO4)CC2)cc1 | 2.2
CCCCS(=O)(=O)Nc1ccc(CN2CCC(CNC(=O)c3cccc4c3OCCO4)CC2)cc1 | 1.8
O=C(NCC1CCN(Cc2ccc(NS(=O)(=O)C3CCCCC3)cc2)CC1)c1c[nH]c2ccccc12 | 0.5
CS(=O)(=O)Nc1ccc(CN2CCC(CNC(=O)c3c4n(c5ccccc35)CCCO4)CC2)cc1 | 1
CC(C(=O)O)c1ccc(CN2CCC(COC(=O)c3c4n(c5ccccc35)CCCO4)CC2)cc1 (stereo not given) | 1.1
O=C(NCC1CCN(Cc2ccc(NS(=O)(=O)C3CCCCC3)cc2)CC1)c1c2n(c3ccccc13)CCCO2 | 2.7
O=C(NCC1CCN(Cc2ccc(NS(=O)(=O)C3CCCCC3)cc2)CC1)c1cccc2c1OCCO2 | 2.5
CC(C)CS(=O)(=O)Nc1ccc(CN2CCC(CNC(=O)c3cccc4c3OCCO4)CC2)cc1 | 1.8
O=C(NCC1CCN(Cc2ccc(NS(=O)(=O)Cc3ccccc3)cc2)CC1)c1c[nH]c2ccccc12 | 1.2
CC(C)CS(=O)(=O)Nc1ccc(CN2CCC(CNC(=O)c3c4n(c5ccccc35)CCCO4)CC2)cc1 | 2.2

System: not listed separately
Experiment: Elimination half life in Sprague-Dawley rat at 10 mg/kg, po or 1 mg/kg, iv after 30 mins to 6 hrs by LC/MS/MS method
Assay type: ADME, organism-based
Conditions: in vivo, read-out: beta t1/2

SMILES | half-life [h]
O=C(OCC1CCN(CC(O)CO)CC1)c1c2n(c3ccccc13)CCCO2 (stereo not given) | 2.5

System: not listed separately
Experiment: Tmax in Sprague-Dawley rat at 10 mg/kg, po or 1 mg/kg, iv after 30 mins to 6 hrs by LC/MS/MS method
Assay type: ADME, organism-based
Conditions: in vivo

SMILES | Tmax [h]
O=C(OCC1CCN(CC(O)CO)CC1)c1c2n(c3ccccc13)CCCO2 (stereo not given) | 2.42

Molecular target: T1, 5-hydroxytryptamine receptor 4
Experiment: Antagonist activity against human 5HT4b receptor expressed in HEK293 cells assessed as reduction in 5-HT-stimulated adenylyl cyclase activity
Assay type: functional, cell-based
Conditions: not given

SMILES | pKb
O=C(OCC1CCN(CC2C3CC4C2C4C3C(=O)O)CC1)c1c2n(c3ccccc13)CCCO2 (stereo not given) | 8.4
CS(=O)(=O)Nc1ccc(CN2CCC(CNC(=O)c3cccc4c3OCCO4)CC2)cc1 | 8.3
O=C(OCC1CCN(CC(O)CO)CC1)c1c2n(c3ccccc13)CCCO2 (stereo not given) | 9.1
CCCCN1CCC(CNC(=O)c2c3n(c4ccccc24)CCCO3)CC1 [PIBOSEROD] | 10.5
CCCCS(=O)(=O)Nc1ccc(CN2CCC(CNC(=O)c3c4n(c5ccccc35)CCCO4)CC2)cc1 | 9.7
CCCCS(=O)(=O)Nc1ccc(CN2CCC(CNC(=O)c3cccc4c3OCCO4)CC2)cc1 | 8
CS(=O)(=O)Nc1ccc(CN2CCC(CNC(=O)c3c4n(c5ccccc35)CCCO4)CC2)cc1 | 8.3
CC(C(=O)O)c1ccc(CN2CCC(COC(=O)c3c4n(c5ccccc35)CCCO4)CC2)cc1 (stereo not given) | 8.8
Cn1cc(C(=O)OCC2CCN(CCNS(C)(=O)=O)CC2)c2ccccc21 | 10.1
O=C(NCC1CCN(Cc2ccc(NS(=O)(=O)C3CCCCC3)cc2)CC1)c1c2n(c3ccccc13)CCCO2 | 8
O=C(NCC1CCN(Cc2ccc(NS(=O)(=O)C3CCCCC3)cc2)CC1)c1cccc2c1OCCO2 | 7.6
CC(C)CS(=O)(=O)Nc1ccc(CN2CCC(CNC(=O)c3cccc4c3OCCO4)CC2)cc1 | 8
CC(C)CS(=O)(=O)Nc1ccc(CN2CCC(CNC(=O)c3c4n(c5ccccc35)CCCO4)CC2)cc1 | 9.7

Molecular target: Voltage-gated inwardly rectifying potassium channel KCNH2 (Homo sapiens, UniProt Q12809)
Sequence (Q12809 whole entry): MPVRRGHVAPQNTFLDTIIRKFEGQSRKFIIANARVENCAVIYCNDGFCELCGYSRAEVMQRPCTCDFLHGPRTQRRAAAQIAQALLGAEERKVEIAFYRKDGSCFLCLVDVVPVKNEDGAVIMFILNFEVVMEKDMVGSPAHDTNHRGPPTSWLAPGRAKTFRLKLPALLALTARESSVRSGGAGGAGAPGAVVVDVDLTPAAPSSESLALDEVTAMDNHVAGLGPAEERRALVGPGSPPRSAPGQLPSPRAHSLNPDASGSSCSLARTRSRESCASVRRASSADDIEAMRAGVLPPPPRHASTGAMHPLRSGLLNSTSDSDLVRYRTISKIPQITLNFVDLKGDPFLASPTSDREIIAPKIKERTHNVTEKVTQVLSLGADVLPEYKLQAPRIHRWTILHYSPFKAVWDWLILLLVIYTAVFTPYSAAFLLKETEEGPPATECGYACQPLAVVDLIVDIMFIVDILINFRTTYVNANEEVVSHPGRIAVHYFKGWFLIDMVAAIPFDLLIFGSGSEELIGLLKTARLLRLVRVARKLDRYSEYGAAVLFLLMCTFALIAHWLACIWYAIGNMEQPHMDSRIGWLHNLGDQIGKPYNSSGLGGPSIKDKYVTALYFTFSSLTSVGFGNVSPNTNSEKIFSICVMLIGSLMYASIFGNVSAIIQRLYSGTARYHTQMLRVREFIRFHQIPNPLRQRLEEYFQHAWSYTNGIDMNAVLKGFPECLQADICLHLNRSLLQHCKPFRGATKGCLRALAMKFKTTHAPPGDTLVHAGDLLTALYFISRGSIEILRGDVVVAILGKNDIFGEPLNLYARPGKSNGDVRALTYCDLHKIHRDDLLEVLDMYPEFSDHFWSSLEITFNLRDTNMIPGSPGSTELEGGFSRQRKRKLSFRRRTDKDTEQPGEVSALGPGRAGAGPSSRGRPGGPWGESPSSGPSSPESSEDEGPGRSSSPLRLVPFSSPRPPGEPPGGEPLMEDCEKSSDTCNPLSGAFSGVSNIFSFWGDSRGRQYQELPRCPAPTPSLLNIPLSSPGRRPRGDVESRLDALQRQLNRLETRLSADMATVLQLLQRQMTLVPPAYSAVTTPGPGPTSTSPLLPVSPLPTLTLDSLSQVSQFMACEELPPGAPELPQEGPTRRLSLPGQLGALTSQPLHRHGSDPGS
Experiment: Inhibition of human ERG expressed in HEK293 cells assessed as reduction in channel tail current by patch clamp method
Assay type: cell-based
Conditions: not given

SMILES | IC50 [nM]
O=C(OCC1CCN(CC(O)CO)CC1)c1c2n(c3ccccc13)CCCO2 (stereo not given) | 81000
CC(C(=O)O)c1ccc(CN2CCC(COC(=O)c3c4n(c5ccccc35)CCCO4)CC2)cc1 (stereo not given) | 25000

System: not listed separately
Experiment: Oral bioavailability in Sprague-Dawley rat at 10 mg/kg after 30 mins to 6 hrs by LC/MS/MS method
Assay type: ADME, organism-based
Conditions: in vivo

SMILES | bioavailability [%]
O=C(OCC1CCN(CC(O)CO)CC1)c1c2n(c3ccccc13)CCCO2 (stereo not given) | 10.3
